The text below walks through data of patent US5932733A, “3-amino-2-oxo-1-piperidineacetic derivatives containing an arginine mimic as enzyme inhibitors” (Corvas International, Inc., priority 1995, dated 1999).

The conditions of series [1]: Markwardt et al. 1972; cited from earlier work.
Series [2] concerns trypsin, plasmin and kallikrein. As to conditions: Markwardt et al. 1972, inhibiting trypsin; cited from earlier work.
The conditions of series [3]: literature report; cited from earlier work.
In a further series the target is T1, aPC (Homo sapiens, UniProt P04070).
T1 construct: purchased Hematologic Technologies, Inc
T1 sequence (P04070 43-197 limits assumed): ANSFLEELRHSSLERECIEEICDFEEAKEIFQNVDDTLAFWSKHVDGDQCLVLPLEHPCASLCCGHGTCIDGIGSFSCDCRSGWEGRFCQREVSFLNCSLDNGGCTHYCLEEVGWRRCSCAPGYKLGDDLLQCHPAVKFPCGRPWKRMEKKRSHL
T1 sequence (P04070 212-461 limits assumed): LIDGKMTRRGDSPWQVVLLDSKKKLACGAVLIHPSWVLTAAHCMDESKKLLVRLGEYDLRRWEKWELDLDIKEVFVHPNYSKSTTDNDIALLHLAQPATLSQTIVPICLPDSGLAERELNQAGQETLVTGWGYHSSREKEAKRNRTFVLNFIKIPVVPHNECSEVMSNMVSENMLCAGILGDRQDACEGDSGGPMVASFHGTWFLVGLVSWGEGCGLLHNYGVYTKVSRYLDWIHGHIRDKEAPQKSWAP
Briefly: In vitro enzyme assay for specificity: activated protein C. The format is biochemical. The conditions noted are these: 1.0 nM enzyme, 30 min preincubation, pH 7.5; mean of at least two experiments. As to the method: Activated Protein C (aPC)
aPC catalytic activity was determined using the chromogenic substrate, Pefachrome PC (delta-carbobenzloxy-D-lysine-L-prolyl-L-arginine-p-nitroanilide), obtained from Pentapharm Ltd.). […] Purified human aPC was obtained from Hematologic Technologies, Inc. The enzyme was diluted into HBSA prior to assay in which the final concentration was 1.0 nM.

The next series deals with T2, Trypsin (Bos taurus, UniProt P00760).
T2 sequence (P00760 24-246): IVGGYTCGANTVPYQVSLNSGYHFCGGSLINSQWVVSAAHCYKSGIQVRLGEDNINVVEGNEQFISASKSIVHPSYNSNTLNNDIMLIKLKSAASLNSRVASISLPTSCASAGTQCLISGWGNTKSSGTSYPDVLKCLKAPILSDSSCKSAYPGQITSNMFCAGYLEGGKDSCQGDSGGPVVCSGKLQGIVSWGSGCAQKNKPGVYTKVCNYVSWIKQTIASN
Briefly: In vitro enzyme assay for specificity: trypsin. The format is biochemical, bovine. As to conditions: 0.5 nM enzyme, 30 min preincubation, pH 7.5; mean of at least two experiments. As to the method:
Trypsin catalytic activity was determined using the chromogenic substrate, S-2222 (benzoyl-L-isoleucine-L-glutamic acid- (gamma-methyl ester)-L-arginine-p-nitroanilide), which was obtained from Kabi Diagnostica. […] Purified (3×-crystallized; TRL3) bovine pancreatic trypsin was obtained from Worthington Biochemical Corp. The enzyme was reconstituted in deionized water and diluted into HBSA prior to assay in which the final concentration was 0.5 nM.

The target in a further series is alpha-thrombin (Homo sapiens, UniProt P00734). Briefly: In vitro enzyme assay for specificity: thrombin amidolytic activity. The class given is biochemical. The conditions noted are these: 0.25 nM enzyme, 30 min preincubation, pH 7.5, mean of at least two experiments.
Another series addresses Plasmin (Homo sapiens, UniProt P00747). The experiment in a line: In vitro enzyme assay for specificity: plasmin. The class given is biochemical. As to conditions: 1.0 nM enzyme, 30 min preincubation, pH 7.5; mean of at least two experiments. How it is done: Plasmin catalytic activity was determined using the chromogenic substrate, S-2251 [D-valyl-L-leucyl-L-lysine-p-nitroanilide], which was obtained from Kabi Diagnostica.

In another series the target is T3, rt-PA (Homo sapiens, UniProt P00750).
T3 construct: purchased Genentech Inc
T3 sequence (P00750 36-562): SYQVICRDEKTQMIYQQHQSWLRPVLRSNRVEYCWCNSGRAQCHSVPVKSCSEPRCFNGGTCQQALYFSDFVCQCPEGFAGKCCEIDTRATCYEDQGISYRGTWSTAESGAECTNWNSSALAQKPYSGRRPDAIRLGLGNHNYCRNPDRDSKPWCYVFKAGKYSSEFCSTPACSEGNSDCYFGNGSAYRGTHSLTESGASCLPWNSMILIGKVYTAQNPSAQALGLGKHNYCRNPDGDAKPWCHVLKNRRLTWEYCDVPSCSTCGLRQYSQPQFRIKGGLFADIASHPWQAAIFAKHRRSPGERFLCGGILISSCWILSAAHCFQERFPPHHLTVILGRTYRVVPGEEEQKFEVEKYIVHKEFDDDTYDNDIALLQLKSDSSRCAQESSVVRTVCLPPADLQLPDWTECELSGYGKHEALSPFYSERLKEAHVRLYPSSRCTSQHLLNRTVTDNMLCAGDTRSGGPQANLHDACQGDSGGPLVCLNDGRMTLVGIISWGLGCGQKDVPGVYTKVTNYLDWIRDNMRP
The experiment in a line: In vitro enzyme assay for specificity: recombinant tissue plasminogen activator. As to conditions: 1.0 nM enzyme, 30 min preincubation, pH 7.5; mean of at least two experiments. The class given is biochemical. The text has this: Recombinant tissue plasminogen activator (rt-PA)

Another series concerns the target Chymotrypsin (Bos taurus, UniProt P00766). The experiment in a line: In vitro enzyme assay for specificity: chymotrypsin. The format is biochemical, bovine. The conditions noted are these: 1.0 nM enzyme, 30 min preincubation, pH 7.5; mean of at least two experiments. As to the method: Chymotrypsin catalytic activity was determined using the chromogenic substrate, S-2586 (methoxy-succinyl-L-arginine-L-prolyl-L-tyrosyl-p-nitroanilide), which was obtained from Kabi Diagnostica. […] Purified (3×-crystallized;CDI) bovine pancreatic alpha-chymotrypsin was obtained from Worthington Biochemical Corp. The enzyme was reconstituted in deionized water and diluted into HBSA prior to assay in which the final concentration was 1.0 nM.

For the next series, the system named is human plasma. The experiment in a line: Ex vivo anticoagulant effect, activated partial thromboplastin time (APTT) in human plasma. The class given is biochemical. As to conditions: citrated human plasma; control 29 seconds; mean of two independent determinations. The text has this:
(§1) The control clotting times (0 inhibitor) for rat and human plasma were 19 seconds and 29 seconds, respectively. The concentration of BzlSO2 -norVal(cyclo)-Gly-Ala(3-guanPip)-al which caused a doubling of the control clotting time in rat and human plasma was 12.7 micromolar and 9.1 micromolar, respectively. The data is the mean of two independent determinations.
(§2) Fresh frozen citrated pooled normal human plasma was obtained from George King Biomedical, Overland Park, KA. Pooled normal rat plasma was prepared from citrated whole blood collected from anesthetized rats using standard procedures. The plasma was flash frozen and stored at-80° C. until use. Measurements APTT was made using the Coag-A-Mate RA4 automated coagulometer (General Diagnostics, Organon Technica, Oklahoma City, Okla.) using the Automated APTT reagent (Organon Technica, Durham, N.C.) as the initiator of clotting according to the manufacturers instructions. The assay was conducted by making a series of dilution's of Isomer B in rapidly thawed plasma followed by adding 200 microliters to the wells of the assay carousel.

The subject of another series is rat plasma. The experiment in a line: Ex vivo anticoagulant effect, activated partial thromboplastin time (APTT) in rat plasma. The format is biochemical. The conditions noted are these: citrated rat plasma; control 19 seconds; mean of two independent determinations.
Excerpt: as §1, §2

Series [4] deals with FeCl3-induced platelet-dependent arterial thrombosis. Briefly: Rat model of FeCl3-induced platelet-dependent arterial thrombosis. The class given is in vivo. As to conditions: single i.v. bolus, n=6, saline 6/6. An excerpt:
Kurz, K. D., Main, B. W., and Sandusky, G. E., Thromb. […] In this model a platelet-rich, occlusive thrombus is formed in a segment of the rat carotid artery treated locally with a fresh solution of FeCl3 absorbed to a piece of filter paper. The FeCl3 is thought to diffuse into the treated segment of artery and causes de-endothelialization of the affected vessel surface. […] The effect of a test compound on the incidence of occlusive thrombus formation following the application of the FeCl3 is monitored by ultrasonic flowtometry and is used as the primary end point. The use of flowtometry to measure carotid artery blood flow, is a modification of the original procedure in which thermal detection of clot formation was employed. Kurz, K. D., Main, B. W., and Sandusky, G. E., Thromb. […] The animals were prepared, anesthetized with Nembutal followed by the insertion of catheters for blood pressure monitoring, drug and anesthesia delivery. The left carotid artery was isolated by making a midline cervical incision followed by blunt dissection and spreading techniques to separate a 2 cm segment of the vessel from the carotid sheath. A silk suture is inserted under the proximal and distal ends of the isolated vessel to provide clearance for the placement of a ultrasonic flow probe (Transonic) around the proximal end of the vessel. The probe is then secured with a stationary arm. […] The test compound was administered as a single intravenous bolus at the doses outlined in Table 3 after placement of the flow probe and 5 minutes prior to the thrombogenic stimulus.

Bounds are passed on as bounds.

Plasmin, sequence (P00747 97-580 limits assumed): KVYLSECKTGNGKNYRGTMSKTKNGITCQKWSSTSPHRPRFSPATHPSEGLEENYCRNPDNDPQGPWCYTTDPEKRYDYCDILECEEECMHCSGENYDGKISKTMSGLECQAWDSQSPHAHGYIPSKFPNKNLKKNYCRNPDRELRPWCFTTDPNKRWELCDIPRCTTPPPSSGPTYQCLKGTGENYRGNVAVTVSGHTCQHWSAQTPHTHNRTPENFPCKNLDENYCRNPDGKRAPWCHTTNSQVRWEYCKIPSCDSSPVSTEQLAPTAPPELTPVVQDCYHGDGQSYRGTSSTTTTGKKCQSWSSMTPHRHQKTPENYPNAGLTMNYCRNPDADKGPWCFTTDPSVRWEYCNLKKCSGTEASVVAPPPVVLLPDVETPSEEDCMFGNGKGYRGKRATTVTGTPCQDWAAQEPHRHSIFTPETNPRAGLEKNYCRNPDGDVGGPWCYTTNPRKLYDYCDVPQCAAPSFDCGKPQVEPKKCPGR
Plasmin, sequence (P00747 581-810 limits assumed): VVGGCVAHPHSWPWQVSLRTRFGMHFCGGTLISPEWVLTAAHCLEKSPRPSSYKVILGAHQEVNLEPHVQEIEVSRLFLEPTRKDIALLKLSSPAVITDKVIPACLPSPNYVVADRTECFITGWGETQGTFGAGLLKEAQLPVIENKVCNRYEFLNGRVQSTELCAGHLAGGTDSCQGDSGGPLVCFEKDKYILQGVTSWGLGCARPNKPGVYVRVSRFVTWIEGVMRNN
Experimental for alpha-thrombin: The buffer used for all assays was HBSA (10 mM HEPES, pH 7.5, 150 mM sodium chloride, 0.1% bovine serum albumin). […] Following a 30-minute incubation at ambient temperature, 50 microliters of the substrate at the concentrations specified below, was added to the wells yielding a final total volume of 200 microliters. The initial velocity of chromogenic substrate hydrolysis was measured by the change in absorbance at 405 nm using a Thermo Max® Kinetic Microplate Reader over a 5 minute period in which less than 5% of the added substrate was utilized.
Thrombin catalytic activity was determined using the chromogenic substrate Pefachrome t-PA (CH3 SO2 -D-hexahydrotyrosine-glycyl-L-arginine-p-nitroanilide, obtained from Pentapharm Ltd.). The substrate was made up in deionized water followed by dilution in HBSA prior to the assay in which the final concentration was 300 micromolar (about 5-times Km). Purified human alpha-thrombin was obtained from Enzyme Research Laboratories, Inc. The enzyme was diluted into HBSA prior to the assay in which the final concentration was 0.25 nM.

For `N=C(N)c1ccc(CC(=O)C(=O)O)cc1` [APPA, 4-amidinophenylpyruvic acid], the pharmacokinetics result in [1] is on record as “favourable pharmacokinetics”. The “selectivity of thrombin inhibition” value in series [2] is “non-selective, inhibiting trypsin, plasmin and kallikrein”. Also, the toxicity result in series [3] is recorded as “low toxicity”.
With `N=C(N)N1CCCC(C[C@@H](C=O)NC(=O)CN2CCC[C@H](NS(=O)(=O)Cc3ccccc3)C2=O)C1` (single isomer, unassigned) [A, benzylsulfonyl-norval(cyclo)-Gly-3-[3-piperidyl-(N-guanidino)]-L-alaninal], the IC50 against aPC is > 25000 nM; at Trypsin, > 25000 nM; against alpha-thrombin it was 28.8 nM; against Plasmin, > 2500 nM; on rt-PA it was > 25000 nM; against Chymotrypsin, > 25000 nM.
For the compound `N=C(N)N1CCCC(C[C@@H](C=O)NC(=O)CN2CCCC[C@H](NS(=O)(=O)Cc3ccccc3)C2=O)C1` (single isomer, unassigned) [C, N-(BnSO2-norLeu(cyclo)-Gly)-3-[3-piperidyl-(N-guanidino)]alaninal], the concentration for half-maximal inhibition (IC50) against aPC is > 2500 nM; against Trypsin it was 11200 nM; at Plasmin it was > 2500 nM; at Chymotrypsin it was > 2500 nM.
As for `N=C(N)N1CCCC(C[C@@H](C=O)NC(=O)CN2CCC[C@H](NS(=O)(=O)Cc3ccccc3)C2=O)C1` (single isomer, unassigned) [Isomer B, benzylsulfonyl-norval(cyclo)-Gly-3-[3-piperidyl-(N-guanidino)]-L-alaninal], the “concentration which caused a doubling of the control clotting time (APTT)” value in the series on human plasma came out at 9.1 µM; in the series on rat plasma, 12.7 µM. On alpha-thrombin, this compound displayed an IC50 of 0.8 nM. Besides, the “Incidence of Occlusion” value in series [4] (0.3 mg/kg) is 6/6; in series [4] (1.0 mg/kg) it was 4/6; in series [4] (3.0 mg/kg, * p ≤ 0.05 from saline control by Fishers test), 0/6.
Consider `N=C(N)N1CCCC(C[C@@H](C=O)NC(=O)CN2CCCC[C@H](NS(=O)(=O)Cc3ccccc3)C2=O)C1` (single isomer, unassigned) [D, N-(BnSO2-norLeu(cyclo)-Gly)-3-[3-piperidyl-(N-guanidino)]alaninal], for which the IC50 was > 2500 nM against aPC, 34400 nM on Trypsin, > 2500 nM at Plasmin and > 2500 nM against Chymotrypsin.

A word on the IC50: it is the concentration needed to halve the response being measured.
